The values below come from patent EP0060077A1, “Beta-lactam antibiotics, their preparation and use” (BEECHAM GROUP PLC, priority 1981, dated 1982).

As usually defined, the MIC is the lowest concentration that inhibits growth of the organism.

Series [1] can be described thus: Tissue stability in mouse kidney homogenate. The series is classed as in vitro ADME. The settings on record: 2% mouse kidney homogenate mixed with equal volume of 200 µg/ml antibiotic, 37°C, HPLC; relative to MM13902 as standard (1.0).
Description: (§3) A preparation of 2% mouse kidney homogenate was mixed with equal volumes of a 200 µg/ml solution of the antibiotic to be tested. The stability of the antibiotic at 37°C was studied by removal of aliquots and subjecting them to high pressure liquid chromatographic analysis. The values are given in figures relative to that obtained for MM13902 which is taken as a standard (1.0). Values greater than 1.0 reflect the fold increase in stability relative to MM13902.
A short description of series [2]: Tissue stability in human kidney homogenate (comparable test). The format is in vitro ADME. The settings on record: relative to MM13902 as standard (1.0).
Description: as §3
The subject of the next series is B. subtilis A. The experiment in a line: MIC (Broth). The series is classed as cell-based. As to conditions: Bacillus subtilis. An excerpt:
(§1) MIC DATA (Broth) For sodium (5RS,6RS)-3-[(Z)-2-carba- moylethenylthio)-4,4-dimethyl-6-[(1SR)-1-hydroxyethyl]-7-oxo-l-azabicyclo[3.2.0]hept-2-en-2-carboxylate (32)
(§2) MIC DATA (Broth) for sodium (5RS,6RS)-4,4-dimethyl-6- [(1SR)-1-hydroxyethyl]-3-(pyrimidin-2-ylsulphinyl)-7-oxo-1-azabicyclo[3.2.0]hept-2-ene-Z-carboxylate (27)

The next series deals with C. freundii E8. As to the kind of experiment: MIC (Broth). The series is classed as cell-based. As to conditions: Citrobacter freundii.
Source text: as §1, §2

The subject of another series is E. coli ESS. The experiment in a line: MIC (Broth). The series is classed as cell-based. The settings on record: Escherichia coli.
Source text: as §1, §2

The test system of another series is K. aerogenes A. As to the kind of experiment: MIC (Broth). As to conditions: Klebsiella aerogenes. The series is classed as cell-based.
Source text: as §1, §2

The test system of another series is P. mirabilis 977. The experiment in a line: MIC (Broth). As to conditions: Proteus mirabilis. The format is cell-based.
Source text: as §1, §2

The subject of a further series is P. morganii 1580. The experiment in a line: MIC (Broth). The series is classed as cell-based. As to conditions: Morganella morganii.
Source text: as §1, §2

Another series relates to P. rettgeri Wm16. As to the kind of experiment: MIC (Broth). As to conditions: Providencia rettgeri. The format is cell-based.
Source text: as §1, §2

Another series deals with P. vulgaris W091. The experiment in a line: MIC (Broth). The series is classed as cell-based. The settings on record: Proteus vulgaris.
Source text: as §1, §2

The test system of the next series is S. aureus 1517. The experiment in a line: MIC (Broth). The settings on record: Staphylococcus aureus. The series is classed as cell-based.
Source text: as §1, §2

In a further series the test system is S. aureus Oxford. As to the kind of experiment: MIC (Broth). The format is cell-based. As to conditions: Staphylococcus aureus.
Source text: as §1, §2

The test system of a further series is S. aureus Russell. As to the kind of experiment: MIC (Broth). The series is classed as cell-based. As to conditions: Staphylococcus aureus.
Source text: as §1, §2

The test system of a further series is S. sonnei MB11 1967. The experiment in a line: MIC (Broth). The format is cell-based. As to conditions: Shigella sonnei, MB111967.
Source text: as §1, §2

In a further series the test system is S. typhimurium CT10. The experiment in a line: MIC (Broth). The format is cell-based. As to conditions: Salmonella enterica.
Source text: as §1, §2

Another series concerns E. cloacae N1. The experiment in a line: MIC (Broth). The settings on record: Enterobacter cloacae. The series is classed as cell-based.
Source text: as §1

The next series has as its system E. cloacae T753. As to the kind of experiment: MIC (Broth). The series is classed as cell-based. The settings on record: Enterobacter cloacae.
Source text: as §1

The test system of another series is E. coli 0111. As to the kind of experiment: MIC (Broth). The series is classed as cell-based. The settings on record: Escherichia coli.
Source text: as §1

For a further series, the system named is E. coli E8. The experiment in a line: MIC (Broth). As to conditions: Escherichia coli. The series is classed as cell-based.
Source text: as §1

Another series relates to E. coli E96. The experiment in a line: MIC (Broth). The format is cell-based. As to conditions: Escherichia coli.
Source text: as §1

For a further series, the system named is E. coli JT39. The experiment in a line: MIC (Broth). The series is classed as cell-based. As to conditions: Escherichia coli.
Source text: as §1

For the next series, the system named is K. aerogenes Ba95. As to the kind of experiment: MIC (Broth). The settings on record: Klebsiella aerogenes. The series is classed as cell-based.
Source text: as §1

Another series deals with K. aerogenes T767. As to the kind of experiment: MIC (Broth). The format is cell-based. The settings on record: Klebsiella aerogenes.
Source text: as §1

For another series, the system named is S. aureus MB9. The experiment in a line: MIC (Broth). The settings on record: Staphylococcus aureus. The format is cell-based.
Source text: as §1

The test system of another series is S. pneumoniae CN 33. As to the kind of experiment: MIC (Broth). The series is classed as cell-based. The settings on record: Streptococcus pneumoniae, CN33.
Source text: as §1

For the next series, the system named is S. pyogenes CN10. As to the kind of experiment: MIC (Broth). The series is classed as cell-based. The settings on record: Streptococcus pyogenes.
Source text: as §1

In the next series the test system is E. cloacae N1 [T753]. The experiment in a line: MIC (Broth). The format is cell-based. The settings on record: Enterobacter cloacae.
Source text: as §2

The next series deals with E. coli 0111 [E8]. The experiment in a line: MIC (Broth). The series is classed as cell-based. The settings on record: Escherichia coli.
Source text: as §2

The next series concerns E. coli JT 2074. As to the kind of experiment: MIC (Broth). The series is classed as cell-based. As to conditions: Escherichia coli, JT2074.
Source text: as §2

A further series deals with E. coli JT39 [E96]. As to the kind of experiment: MIC (Broth). The format is cell-based. As to conditions: Escherichia coli.
Source text: as §2

A further series has as its system E. coli JT410 C4. As to the kind of experiment: MIC (Broth). The series is classed as cell-based. The settings on record: Escherichia coli, JT410C4.
Source text: as §2

A further series relates to K. aeogenes BA 9J R+. The experiment in a line: MIC (Broth). The series is classed as cell-based.
Source text: as §2

For the next series, the system named is Serratia marcescens US32. As to the kind of experiment: MIC (Broth). The format is cell-based.
Source text: as §2

Read-outs that look alike come from different tables or passages of the source.

Regarding `CC(=O)N/C=C/SC1=C(C(=O)O)N2C(=O)[C@@H]([C@H](C)OS(=O)(=O)O)[C@H]2C1` [MM13902, reference compound], the “Relative Stability” value was determined as 1.4 in series [1] and 1.1 in [2].
With `C[C@H](O)[C@@H]1C(=O)N2C(C(=O)[O-])=C(S/C=C\C(N)=O)C(C)(C)[C@@H]12.[Na+]` (racemic), the MIC against B. subtilis A turned out to be 1.6 µg/mL; against C. freundii E8 (E8), 25 µg/mL; in the series on E. coli ESS, 3.1 µg/mL; against K. aerogenes A, 6.2 µg/mL; against P. mirabilis 977 (977), 25 µg/mL; with P. morganii 1580 (1580), 25 µg/mL. In addition, the minimum inhibitory concentration (MIC) against P. rettgeri Wm16 (WM16) was determined as 25 µg/mL; against P. vulgaris W091 (W091), 25 µg/mL; with S. aureus 1517 (1517), 25 µg/mL; in the series on S. aureus Oxford it was 6.2 µg/mL; with S. aureus Russell, 3.1 µg/mL; with S. sonnei MB11 1967, 25 µg/mL. Moreover, the MIC against S. typhimurium CT10 (TYPHIMURIUM) was determined as 50 µg/mL; in the series with E. cloacae N1, 25 µg/mL; against E. cloacae T753, 100 µg/mL; in the series with E. coli 0111, 50 µg/mL; in the series on E. coli E8 it was 50 µg/mL; against E. coli E96, 50 µg/mL. Further, the MIC against E. coli JT39 was 12.5 µg/mL; against K. aerogenes Ba95, 50 µg/mL; in the series with K. aerogenes T767, 50 µg/mL; in the series with S. aureus MB9, 25 µg/mL; against S. pneumoniae CN 33, 50 µg/mL; against S. pyogenes CN10, 6.2 µg/mL. In addition, the figures for the “Relative Stability” value in series [1] and in series [2] were 10.8 and 6.9, respectively.
Consider `C[C@H](O)[C@@H]1C(=O)N2C(C(=O)[O-])=C([S+]([O-])c3ncccn3)C(C)(C)[C@@H]12.[Na+]` (mixture of isomers) [Example 22, Sodium (5RS,6RS)-4,4-dimethyl-6-((1SR)-1-hydroxyethyl]-3-(pyrimidin-2-ylsulphinyl)-7-oxo-1-azabicyclo(3.2.0]hept-2-en-2-carboxylate], for which the MIC is 0.8 µg/mL with B. subtilis A (Broth, B. subtilis A, read-out: MIC); 25 µg/mL with C. freundii E8 (Broth, C. freundii E8, read-out: MIC); 1.6 µg/mL with E. coli ESS (Broth, E. coli ESS, read-out: MIC); 50 µg/mL in the series with K. aerogenes A (Broth, K. aerogenes A, read-out: MIC); 25 µg/mL with P. mirabilis 977 (Broth, P. mirabilis 977, read-out: MIC); 25 µg/mL in the series with P. morganii 1580 (Broth, P. morganii 1580, read-out: MIC). The MIC with P. rettgeri Wm16 (Broth, P. rettgeri Wm16, read-out: MIC) amounted to 25 µg/mL; in the series on P. vulgaris W091 (Broth, P. vulgaris W091, read-out: MIC), 6.2 µg/mL; with S. aureus 1517 (Broth, S. aureus 1517, read-out: MIC), 25 µg/mL; in the series with S. aureus Oxford (Broth, S. aureus Oxford, read-out: MIC), 0.8 µg/mL; in the series with S. aureus Russell (Broth, S. aureus Russell, read-out: MIC), 1.6 µg/mL; in the series on S. sonnei MB11 1967 (Broth, S. sonnei MB11 1967, read-out: MIC), 50 µg/mL. The MIC was 12.5 µg/mL with S. typhimurium CT10 (Broth, S. typhimurium CT10, read-out: MIC); 25 µg/mL against E. cloacae N1 [T753]; 25 µg/mL in the series on E. coli 0111 [E8]; 25 µg/mL with E. coli JT 2074; 50 µg/mL with E. coli JT39 [E96]; 25 µg/mL in the series on E. coli JT410 C4. The minimum inhibitory concentration (MIC) came to 25 µg/mL against K. aeogenes BA 9J R+ and 100 µg/mL with Serratia marcescens US32.
